Assay results published in patent publication US11352330B2, “Phenoxymethyl derivatives” (Hoffmann-La Roche Inc., priority 2015, dated 2022).

Target: human ATX (Homo sapiens (Human), UniProt Q13822)
Assay: Human ATX enzyme inhibition assay (fluorescence quenching, MR121 substrate)
Assay type: biochemical
Settings: human His-tagged ATX 30 nM, MR121 substrate 1 μM, 30° C.
How it was run: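 Human His-tagged ATX (30 nM final) preincubated 15 min at 30 °C with serially diluted compounds in Tris buffer pH 8.0 with Ca2+, Mg2+ and 0.01% Triton X-100. MR121/tryptophan-labelled substrate analogue (1 μM final) then added for 15 min at 30 °C; cleavage read by fluorescence dequenching.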

IC50 [nM] | SMILES
3 | Cc1cc(OCc2n[nH]c(=O)n2C)c(-c2cc(CN3CCCC3=O)ccc2F)cc1Cl [Example B81]
7 | CCOC(=O)CNC(=O)c1cccc(-c2cc(Cl)c(C)cc2OCc2n[nH]c(=O)n2C)c1 [Example B46, Ethyl 2-[[3-[5-chloro-4-methyl-2-[(4-methyl-5-oxo-1H-1,2,4-triazol-3-yl)methoxy]phenyl]benzoyl]amino]acetate]
27 | Cc1cc(OCc2cc[nH]n2)c(C(C)(C)C)cc1Cl [Example F1, 3-((2-tert-Butyl-4-chloro-5-methylphenoxy)methyl)-1H-pyrazole]
13 | CN(CCO)c1ccc2c(COc3cc(F)c(Cl)cc3C(C)(C)C)n[nH]c2n1 [Example D14]
81 | Cc1nc(-c2cccc(-c3cc(C#N)c(Cl)cc3OCc3n[nH]c(=O)n3C)c2)no1 [Example B35]
3 | Cc1cc(OCc2n[nH]c(=O)n2C)c(-c2cccc(C#N)c2)cc1Cl [Example B5]
7 | Cc1cc(OCc2ccc(=O)[nH]n2)c(C2CCCCC2)cc1Cl [Example C6, 3-[(4-chloro-2-cyclohexyl-5-methylphenoxy)methyl]-1H-pyridazin-6-one]
5 | Cc1cc(OCc2n[nH]c(=O)n2C)c(C(C)C)cc1Cl [Example A28]
22 | Cc1cc(OCc2n[nH]c(=O)n2C)c(-c2cccc(C(=O)N(C)C)c2)cc1Cl [Example B12]
4 | CC(C)Oc1ccc(F)c(-c2cc(C#N)c(Cl)cc2OCc2n[nH]c(=O)n2C)c1 [Example B89]
43 | Cn1c(COc2cc(Cl)c(C#N)cc2-c2ccccc2)n[nH]c1=O [Example B31]
29 | Cc1cc(OCc2n[nH]c(=O)n2C)c(-c2cccc(C(=O)N(C)CCO)c2)cc1Cl [Example B45, 3-[5-Chloro-4-methyl-2-[(4-methyl-5-oxo-1H-1,2,4-triazol-3-yl)methoxy]phenyl]-N-(2-hydroxyethyl)-N-methylbenzamide]
212 | Cc1cc(OCc2n[nH]c(=O)n2C)c(-c2ncccn2)cc1Cl [Example B23, 3-[(4-Chloro-5-methyl-2-pyrimidin-2-yl-phenoxy)methyl]-4-methyl-1H-1,2,4-triazol-5-one]
1 | Cc1cc(OCc2n[nH]c(=O)n2C)c(-c2ccccc2Cl)cc1Cl [Example B2]
6 | Cc1cc(OCc2n[nH]c3nc(OCC(O)CO)ccc23)c(C(C)(C)C)cc1Cl (stereo not drawn) [Example D15, 3-[[3-[(2-tert-Butyl-4-chloro-5-methylphenoxy)methyl]-1H-pyrazolo[3,4-b]pyridin-6-yl]oxy]propane-1,2-diol]
15 | CC(C)c1cc(C#N)ccc1OCc1n[nH]c(=O)n1C [Example A11]
173 | Cn1c(COc2cc(C#N)c(Cl)cc2C2CC2)n[nH]c1=O [Example A22]
10 | Cn1c(COc2cc(F)c(Cl)cc2C(C)(C)C)n[nH]c1=O [Example A2]
6 | COCCN(C)C(=O)c1ccc(F)c(-c2cc(Cl)c(C)cc2OCc2n[nH]c3ncccc23)c1 [Example D40]
2 | CC(C)(C)c1cc(Cl)c(C#N)cc1OCc1n[nH]c2ncccc12 [Example D52]
202 | COc1ncccc1-c1cc(Cl)c(C)cc1OCc1n[nH]c2c1CCNC2 [Example E7, 3-((4-Chloro-2-(2-methoxypyridin-3-yl)-5-methylphenoxy)methyl)-4,5,6,7-tetrahydro-1H-pyrazolo[3,4-c]pyridine]
3720 | Cc1cc(OCc2n[nH]c(=O)n2C)c(-c2cncn2C)cc1Cl [Example B27, 3-[[4-Chloro-5-methyl-2-(3-methylimidazol-4-yl)phenoxy]methyl]-4-methyl-1H-1,2,4-triazol-5-one]
7 | Cc1cc(OCc2n[nH]c3ccccc23)c(-c2cc(C(=O)N3CCN(C)C(=O)C3)ccc2F)cc1Cl [Example D41]

IC50 [nM] | SMILES
59 | Cc1noc(-c2ccc(OCc3n[nH]c(=O)n3C)c(C(C)(C)C)c2)n1 [Example A4]
9 | CCOc1ccc(F)c(-c2cc(Cl)c(C)cc2OCc2n[nH]c(=O)n2C)c1 [Example B55]
8 | Cc1cc(OCc2n[nH]c(=O)n2C)c(-c2cc(C(=O)N(C)C)ccc2F)cc1Cl [Example B38]
6 | Cc1cc(OCc2n[nH]c3ncccc23)c(-c2cc(C(=O)N3CCCC3)ccc2F)cc1Cl [Example D42]
1 | Cc1cc(OCc2n[nH]c(=O)n2C)c(-c2cccc(Cl)c2)cc1Cl [Example B3]
17 | Cc1cc(OCc2n[nH]c(=O)n2C)c(-c2cc(C(=O)N(C)C)ccc2C)cc1Cl [Example B51, 3-[5-Chloro-4-methyl-2-[(4-methyl-5-oxo-1H-1,2,4-triazol-3-yl)methoxy]phenyl]-N,N,4-trimethylbenzamide]
10 | Cc1cc(OCc2n[nH]c(=O)n2C)c(-c2cccc(C(=O)N3CCCCC3)c2)cc1Cl [Example B8]
215 | Cc1cc(OCc2n[nH]c3ncccc23)c(C(C)(C)C)cc1S(C)(=O)=O [Example D9]
17 | Cc1cc(OCc2n[nH]c3ncccc23)c(-c2cccc(C(=O)N(C)C)c2)cc1Cl [Example D18]
22 | COc1ncccc1-c1cc(Cl)c(C)cc1OCc1n[nH]c2ncccc12 [Example D20]
12 | Cc1cc(OCc2n[nH]c(=O)n2C)c(-c2cccc(C(=O)NC3CCCCC3)c2)cc1Cl [Example B9]
6 | Cc1cc(OCc2n[nH]c(=O)n2C)c(-c2ccc(Cl)cc2)cc1Cl [Example B4]
11 | Cc1cc(OCc2n[nH]c(=O)n2C)c(-c2cc(C(=O)NC3CC3)ccc2F)cc1Cl [Example B15]
25 | COc1ccc(C(F)(F)F)cc1-c1cc(Cl)c(C)cc1OCc1n[nH]c(=O)n1C [Example B59]
19 | Cc1ccc(C(C)C)c(OCc2n[nH]c(=O)n2C)c1 [Example A27, 4-Methyl-3-[(5-methyl-2-propan-2-ylphenoxy)methyl]-1H-1,2,4-triazol-5-one]
82 | Cc1cc(OCc2n[nH]c(=O)n2C)c(-c2cccc(C(=O)NCCO)c2)cc1Cl [Example B36]
4.5 | CC(C)(C)c1cc(Cl)c(F)cc1OCc1n[nH]c2nc(NCCO)ccc12 [Example D11]
69 | N#Cc1cc(-c2cc(OC3CC3)ccc2F)c(OCc2n[nH]c3cnccc23)cc1Cl [Example D51]
1 | CC(C)(C)c1cc(Cl)c(F)cc1OCc1n[nH]c2nc(F)ccc12 [Example D12]
9 | Cc1cc(OCc2n[nH]c(=O)n2C)c(-c2cc(C(=O)N3CCCC3)ccc2F)cc1Cl [Example B62]
245000 | CC(C)(C)c1cc(S(C)(=O)=O)ccc1OCc1n[nH]c2ccccc12 [Example D1]
18 | CC(C)(C)c1cc(Cl)c(F)cc1OCc1n[nH]c2cccnc12 [Example D25]
